Data from article PMC11653257, “Organometallic Half-Sandwich Complexes of 8-Hydroxyquinoline-Derived Mannich Bases with Enhanced Solubility: Targeting Multidrug Resistant Cancer” (Inorganic Chemistry, 2024).
Converted amounts (≈) assume the structure as drawn. Like-named read-outs stand apart in the source and are kept apart here.

What was measured:
[1] = test system: Colo320; assay: Cytotoxicity, Colo320; format: cell-based, human; settings: this work
Source text: Supplementary Information
(11 pictures or pasted objects on this page, not shown here)

[2] = test system: methicillin-resistant S. aureus (MRSA) ATCC 43300; assay: Antibacterial MIC, MRSA; format: cell-based, Staphylococcus aureus; settings: Mueller Hinton Broth, 37 °C, 18 h
Method: (§1) Escherichia coli (ATCC 25922) was used as Gram-negative strain and Staphylococcus aureus (ATCC 25923, methicillin-resistant (MRSA) ATCC 43300) strains were applied as Gram-positive bacterial cultures in the experiments. MIC values of the compounds were determined in 96-well plates based on the Clinical and Laboratory Standard Institute guidelines (CLSI guidelines).[76] The stock solutions of the compounds (same as those used for cytotoxicity experiments) were diluted in 100 μL of Mueller Hinton Broth. Then, 10^–4 dilution of an overnight bacterial culture in 100 μL of medium was added to each well, with the exception of the medium control wells.

[3] = pKa of the ligands by UV–vis titration; format: physicochemical; settings: for pKa: 0.20 M KNO3, UV–vis, I = 0.20 M KNO3, 10 equiv. EDTA
Method: (§2) Physico-chemical properties such as aqueous solubility, lipophilicity, and the actual protonation state at a given pH are known to influence the pharmacokinetic behavior of a drug.
(§3) An Agilent Cary 8454 diode array spectrophotometer was utilized to obtain UV–vis spectra in the wavelength range 190–1100 nm. The path length (l) was 1 or 2 cm in most cases (the actual l is always indicated in the legends of the figures). The concentrations of the ligands and complexes were between 36 and 100 μM. The ligands were titrated in the presence of 10 equiv of EDTA. Individual samples contained 0–37 μM HSA, 0–206 μM MIM, 0–759 μM AHA, or 0–733 μM FHA. Spectra were always background and baseline corrected. The computer program HypSpec[64] was used to obtain stability constants.

[4] = test system: MES-SA/Dx5; settings: monoculture, ref SI3, cited from earlier work
[5] = pKa of the ligands by 1H NMR titration; format: physicochemical; settings: 0.20 M KNO3 with 10% (v/v) D2O, I = 0.20 M KNO3, 25.0 °C, read-out: pKa (OH)
Method: as §2
(§4) Bruker Avance III HD Ascend 500 Plus instrument (Billerica, MA, USA) was used for NMR studies. ^1H NMR spectroscopic measurements were carried out with a WATERGATE water suppression pulse scheme in the presence of 10% (v/v) D2O in most cases. DSS internal standard was added to samples to obtain reference peaks. ^1H NMR titrations were carried out in the presence of 0.20 M KNO3. The computer program HypSpec[64] was used to obtain equilibrium constants.

[6] = test system: A431; design: method as in earlier work; settings: monoculture, 72 h, PrestoBlue; ref SI3; cited from earlier work
[7] = test system: MES-SA; settings: monoculture, PrestoBlue; ref SI3; cited from earlier work
[8] = Thermodynamic aqueous solubility at pH 7.4; format: physicochemical; settings: 10 mM HEPES buffer, thermodynamic from solid, pH 7.4 (10 mM HEPES), 25.0 °C, read-out: thermodynamic aqueous solubility S7.4
Method: The concentration of the compounds was determined by UV–vis spectrophotometry. For calibration, stock solutions of the compounds were used with known concentrations dissolved in 100% DMSO, 75% DMSO, and 50% (v/v) DMSO/buffered aqueous solutions.

[9] = test system: Staphylococcus aureus (ATCC 25923); assay: Antibacterial MIC, S. aureus; format: cell-based; settings: Mueller Hinton Broth, 37 °C, 18 h
Method: as §1

[10] = molecular target: human serum albumin (HSA), site II (Homo sapiens, UniProt P02768); assay: HSA dansylglycine (DG) site marker displacement
Sequence of human serum albumin (HSA), site II (P02768 25-609): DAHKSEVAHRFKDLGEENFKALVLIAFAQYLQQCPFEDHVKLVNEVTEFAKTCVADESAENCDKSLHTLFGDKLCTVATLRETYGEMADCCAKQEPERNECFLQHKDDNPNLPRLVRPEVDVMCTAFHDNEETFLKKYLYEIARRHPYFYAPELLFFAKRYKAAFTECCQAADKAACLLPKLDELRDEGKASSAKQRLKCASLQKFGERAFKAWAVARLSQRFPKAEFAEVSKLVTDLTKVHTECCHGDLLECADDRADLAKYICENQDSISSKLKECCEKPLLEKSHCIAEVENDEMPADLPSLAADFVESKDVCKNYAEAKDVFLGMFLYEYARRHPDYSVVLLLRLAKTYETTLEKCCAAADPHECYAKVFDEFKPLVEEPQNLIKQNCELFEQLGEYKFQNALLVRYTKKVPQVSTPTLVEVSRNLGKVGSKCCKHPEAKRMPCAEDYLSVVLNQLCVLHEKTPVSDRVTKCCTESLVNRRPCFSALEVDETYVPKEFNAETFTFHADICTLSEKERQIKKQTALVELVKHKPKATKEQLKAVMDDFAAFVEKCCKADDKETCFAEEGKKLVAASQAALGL
Method: (§6) Next, spectrofluorometric measurements were also performed to gain insight into the binding interactions that may occur in the hydrophobic binding sites of HSA. Tryptophan (Trp214) quenching experiments were conducted for the complexes (1–4) (for complex (3) see Figure S31) and their ligands). […] To monitor the binding at site II, site marker displacement experiments were performed using dansylglycine (DG).
(§7) Fluorescence measurements were carried out on a Fluoromax (Horiba Jobin Yvon, Longjumeau, France) spectrofluorometer using a 1 cm × 1 cm quartz cuvette. […] Excitation wavelengths were 295 nm for Trp-214 quenching and 340 nm for the DG displacement studies. The calculated conditional stability constants for HSA–complex species were obtained using the computer program HypSpec.[64] Calculations always were based on data obtained from at least two independent measurements.

[11] = n-octanol/water distribution coefficient (shake-flask); format: physicochemical; settings: pH 7.4
Method: The exchange of the coligand (H2O/Cl^–) changes the overall charge of the complex, thus affecting lipophilicity. […] The traditional shake-flask method was used to obtain distribution coefficients of the ligands as well as of the complexes in n-octanol/buffered aqueous solution (20 mM phosphate, pH = 7.4) at different chloride ion concentrations (4, 24, and 100 mM) using UV–vis spectrophotometry (Agilent Cary 8454 diode array spectrophotometer, Santa Clara, CA, USA) for the analysis. The compounds were dissolved in buffered aqueous solutions previously saturated with n-octanol. Then the aqueous and n-octanol phases were gently mixed in different volume ratios (using 1:60 for the ligands, 1:1 for the RhCp* and 1:2 for the RuCym complexes ratios of n-octanol to buffered aqueous solution volume) for 4 h, followed by phase separation. Then the UV–vis spectrum of the aqueous or n-octanol phase was recorded and compared to the reference spectrum. Stock solutions were made in the aqueous phase, and distribution coefficients (DpH) were calculated by the following equation: [drawing 3]

[12] = test system: A431-B1; design: method as in earlier work; settings: monoculture, ref SI3, cited from earlier work
[13] = molecular target: human serum albumin (HSA), Trp214 / site I (Homo sapiens, UniProt P02768); assay: HSA Trp214 fluorescence quenching
Sequence of human serum albumin (HSA), Trp214 / site I (P02768 25-609): as above
Method: as §6, §7

[14] = test system: Escherichia coli (ATCC 25922); assay: Antibacterial MIC, E. coli; format: cell-based; settings: Mueller Hinton Broth, 37 °C, 18 h
Method: as §1

[15] = H2O/Cl– coligand exchange by UV–vis titration with chloride ions; format: physicochemical; settings: RuCym complexes titrated at pH 6.0
Method: When the isolated complexes (1–4) are dissolved in water, their chlorido coligand can be replaced by water, or vice versa in the aqua complexes [M(arene)(HL)(H2O)]^2+, the H2O → Cl^– exchange process can take place in the presence of chloride ions. The chloride ion affinity of the complexes was also investigated by UV–vis spectrophotometry. RhCp* and RuCym complexes were titrated with chloride ions at pH 7.4 and 6.0, respectively. For this experiment, pH values were chosen at which the formation of the mixed hydroxido species is negligible. A representative spectrum series for complex (4) is shown in Figure S27, and the calculated conditional exchange constants (logK’ (H2O/Cl^–)) are given in Table 2 and in Figure S23. […] The complexes of the amino acid hybrids HQCl-D-Pro and HQCl-D-hPro have lower logK’ (H2O/Cl^–) constants most likely due to the repulsive effect of the nearby COO^– group.[26]

[16] = pKa of in situ prepared complexes by pH-potentiometry; format: physicochemical; settings: I = 0.20 M KNO3
Source text: (§5) The results, shown in Table 2, indicate good agreement between the data obtained by the different methods. It should be noted that these processes show overlap in all cases, and therefore, the assignment of the pKa values to the given moieties cannot be made reliably. However, by comparing the spectral changes with those observed for HQ and other simple derivatives,[25] it can be concluded that the lower pKa likely belongs to the deprotonation of the aqua coligand.
The pH-potentiometric measurements were carried out at 25.0 ± 0.1 °C in water in the pH range between 2.0 and 11.5 and at a constant ionic strength of 0.20 M KNO3. The titrations were performed in a carbonate-free KOH solution (0.20 M). The exact concentrations of the HNO3 and KOH solutions were determined by pH-potentiometric titrations. An Orion 710A pH-meter equipped with a Metrohm combined electrode (type 6.0234.100) and a Metrohm 665 Dosimat buret were used for this purpose. […] The average water ionization constant, pKw, was determined as 13.76 ± 0.01, which is in good agreement with the literature data.[67] The initial volume of the samples was 10.0 mL. […] Samples were degassed by bubbling purified argon through them for about 10 min prior to the measurements, and the inert gas was also passed over the solutions during the titrations. The computer program Hyperquad2013[64] was utilized to establish the stoichiometry of the species and to calculate the equilibrium constants.

[17] = pKa of in situ prepared complexes by UV–vis titration; format: physicochemical; settings: 1:1 system, absence of chloride, I = 0.20 M KNO3
Source text: The UV–vis spectra of the complexes prepared in situ were then followed at different pH values in the absence of chloride ions. No spectral changes were observed between pH = 2–6.3 (RuCym) or 7.5 (RhCp*), indicating high solution stability in both cases; however, the changes were significant in the basic pH range (Figure S22). In the case of RuCym complexes, two overlapping processes associated with the deprotonation of the coordinated water molecule and the noncoordinated Npyr/pipH^+ moiety were observed. […] The pKa values determined for these processes are shown in Table 2 and Figure S23 together with the values obtained for complexes formed with the amino acid hybrids HQCl-D-Pro and HQCl-D-hPro (Chart 2) for comparison.[26]
as §3

[18] = test system: MES-SA; assay: Cytotoxicity in double coculture, MES-SA mCherry; settings: read-out: IC50 MES-SA; double coculture with MES-SA/Dx5; 144 h; without TQ
Method: Therefore, the novel half-sandwich complexes (1–4) and their corresponding ligands were tested against a coculture of MES-SA and MES-SA/Dx5 cells expressing the fluorescent proteins mCherry or eGFP, respectively.[62]
MES-SA/B1 is a human MDR1-transfected derivative of MES-SA, and MES-SA mCherry, MES-SA/B1 mOrange, and MES-SA/Dx5 eGFP were engineered to stably express the respective fluorescent proteins previously.[62] Cells were kept in culture medium (DMEM) supplemented with 10% fetal bovine serum, 2 mM L-glutamine, 100 units/mL penicillin, and 100 μg/mL streptomycin (Thermo Fisher). One week before use, MES-SA/Dx5 eGFP cells were treated with 0.5 μM doxorubicin to ensure ABCB1/P-gp expression.
The tested compounds were dissolved in 50% (v/v) DMSO/PBS’ buffer to prepare 5–10 mM stock solutions, which were diluted in complete culture medium. Constitutive expression of the fluorescent proteins allowed multiplexing in cytotoxicity experiments.[62] […] Serial dilutions of the compounds were added 24 h after seeding. To address the effect of P-gp function, TQ was added at a nontoxic concentration (0.4 μM) 15 min before the test compounds. […] IC50 values and standard deviation were calculated from average pIC50 values from at least 3 independent measurements.

[19] = pKa of in situ prepared complexes by 1H NMR titration; format: physicochemical; settings: 1:1 system, I = 0.20 M KNO3
Source text: as §5, §4

[20] = test system: MES-SA/Dx5; assay: Cytotoxicity in double coculture, MES-SA/Dx5 eGFP; settings: for SR = IC50 (MES-SA)/IC50 (MES-SA/Dx5): double coculture
[21] = pH 7.4, based on the pKa values

Oc1c(CN2CCCC2)cc(Cl)c2cccnc12 [HQCl-pyr, 5-chloro-7-(pyrrolidin-1-ylmethyl)quinolin-8-ol]
SR (Colo205 / Colo320) [1]: 2.0
MIC ([2]; Staphylococcus aureus): 50 µM (≈ 13.1 µg/mL)
pKa ([3]; read-out: pKa (Npyr/pipH+)): 11.36 ± 0.1
pKa ([3]; read-out: pKa (NqH+)): < 2
pKa ([3]; read-out: pKa (OH)): 7.53 ± 0.05
fraction of H2L+ [3, 21]: 51%
fraction of HL [3, 21]: 49%
IC50 ([4]; PrestoBlue): 0.3 ± 0.06 µM
SR (MES-SA / MES-SA/Dx5) ([4]; + 1 µM TQ): 1.35
SR (MES-SA / MES-SA/Dx5) [4]: 11.53
pKa [5]: 7.65 ± 0.02
IC50 [6]: 7.45 ± 0.15 µM
IC50 [7]: 3.46 ± 0.51 µM
solubility thermodynamic [8]: 516 ± 2 µM (≈ 136 µg/mL)
MIC ([9]; Staphylococcus aureus, ATCC25923): 50 µM (≈ 13.1 µg/mL)
Kd [10]: 12.6 µM
logD at 4 h ([11]; n-octanol/buffered aqueous solution, n-octanol/H2O, read-out: log D7.4): 1.83
IC50 ([12]; 72 h, PrestoBlue): 1.97 ± 0.25 µM
SR (A431 / A431-B1) [12]: 3.79
Kd [13]: 25.1 µM
MIC ([14]; Escherichia coli, ATCC25922): 50 µM (≈ 13.1 µg/mL)

[RuCym(HQCl-Pip)Cl]Cl [(4)]
MIC [2]: > 100 µM
logK’ (H2O/Cl–) [15]: 1.78 ± 0.02
pKa (H2O) [16]: 8.43 ± 0.08
pKa (Npyr/pipH+) [16]: 10.07 ± 0.07
MIC [9]: > 100 µM
pKa (H2O) [17]: 8.39 ± 0.10
pKa (Npyr/pipH+) [17]: 10.06 ± 0.05
IC50 [18]: 3.46 µM
pKa (H2O) [19]: 8.50 ± 0.02
pKa (Npyr/pipH+) [19]: 10.19 ± 0.02
logK’(DG) ([10]; cHSA = cDG = 1 μM, λEX = 335 nm (DG), pH 7.4 (PBS’), […], 24 h): 5.3 ± 0.1
logD7.4 ([11]; c(Cl–) = 4 mM): +0.35 ± 0.02
logD7.4 ([11]; c(Cl–) = 24 mM): +0.72 ± 0.02
logD7.4 ([11]; c(Cl–) = 100 mM): +0.89 ± 0.02
SR = IC50 (MES-SA)/IC50 (MES-SA/Dx5) ([20]; + 0.4 μM tariquidar (TQ)): 0.2
SR = IC50 (MES-SA)/IC50 (MES-SA/Dx5) ([20]; without TQ): 1.8
IC50 ([20]; read-out: IC50 MES-SA/Dx5, double coculture with MES-SA, 144 h, without TQ): 1.92 µM
logK’(quenching) ([13]; 1 μM HSA, λEX = 295 nm (Trp-214), pH 7.4 (PBS’), […], 24 h): 5.4 ± 0.2
MIC [14]: > 100 µM
